We go through 7 molecules from patent US7250440B2, “(Hydroxyphenyl)-1H-indole-3-carbaldehyde oxime derivatives as estrogenic agents” (Wyeth, priority 2003, dated 2007).

Read-outs that look alike come from different tables or passages of the source.

What is called melting point is the temperature of the solid-liquid transition.

One data set addresses T1, human ERβ (Homo sapiens, UniProt Q92731).
T1 construct: made in house; host or cells: E. coli
Description: Competition with [3H]-17β-estradiol for binding to the ERβ ligand binding domain. As for the experimental part: (§1) Representative examples of the invention were evaluated for their ability to compete with 17β-estradiol for both ERα and ERβ. This test procedure provides the methodology for one to determine whether a particular compound binds to the estrogen receptor (and is therefore “estrogenic”) and whether there is selectivity for ERα or ERβ. […] 17β-estradiol is included as a standard reference for comparison. The procedure used is briefly described below. A crude lysate of E. coli expressing the estrogen receptor ligand binding domains D, E, & F) of human ERα or ERβ was prepared. Both receptors and compounds were diluted in 1× Dulbecco's PBS (DPBS) supplemented with 1 mM EDTA. Using a high binding masked microtiter plate, 100 uL of receptor (1 uG/well) was combined with 2 nM [^3H]-17β-estradiol and various concentrations of compound. After between 5 and 15 hours at room temperature, the plates were washed with DPBS/1 mM EDTA and bound radioactivity determined by liquid scintillation counting.

For the next data set, the target named is T2, human ERα (Homo sapiens, UniProt P03372).
T2 construct: made in house; host or cells: E. coli
T2 sequence (P03372 311-547 limits assumed): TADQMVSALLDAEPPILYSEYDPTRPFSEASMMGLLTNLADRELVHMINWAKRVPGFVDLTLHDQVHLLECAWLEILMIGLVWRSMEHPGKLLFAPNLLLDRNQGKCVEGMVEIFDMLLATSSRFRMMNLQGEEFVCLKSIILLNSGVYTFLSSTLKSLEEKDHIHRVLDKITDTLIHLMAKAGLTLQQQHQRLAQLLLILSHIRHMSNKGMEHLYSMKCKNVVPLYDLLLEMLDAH
In words: Competition with [3H]-17β-estradiol for binding to the ERα ligand binding domain. The following applies: crude E. coli lysate expressing human ERα ligand binding domain; 2 nM [3H]-17β-estradiol; 5-15 hours at room temperature. As for the experimental part: as §1

T1 sequence (Q92731 264-498 limits assumed): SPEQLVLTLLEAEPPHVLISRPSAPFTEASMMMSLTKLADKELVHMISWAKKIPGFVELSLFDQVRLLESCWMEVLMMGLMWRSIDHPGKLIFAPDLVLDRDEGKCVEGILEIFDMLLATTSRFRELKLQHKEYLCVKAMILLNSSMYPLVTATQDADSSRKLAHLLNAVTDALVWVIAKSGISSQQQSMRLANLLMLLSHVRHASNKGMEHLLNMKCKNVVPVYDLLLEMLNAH

`Cc1c(/C=N/O)c2ccccc2n1-c1ccc(O)c(F)c1` [Example 10, 1-(3-Fluoro-4-hydroxyphenyl)-2-methyl-1H-indole-3-carbaldehyde oxime] displayed a melting point of 182 to 184 °C. In addition, the IC50 at human ERβ (crude E. coli lysate expressing human ERβ ligand binding domain, 2 nM [3H]-17β-estradiol, 5-15 hours at room temperature, read-out: ERβ) worked out at 8 nM.

In the case of `O/N=C1\CCCc2c1c1ccccc1n2-c1ccc(O)cc1` [Example 8, (4E)-9-(4-Hydroxyphenyl)-1,2,3,9-tetrahydro-4H-carbazol-4-one oxime], the melting point fell in the range of 227 to 229 °C. On human ERβ, this molecule registered an IC50 of 10 nM. This molecule also gave an IC50 at human ERα of 153 nM.

Molecule `Cc1c(/C=N/O)c2cc(F)ccc2n1-c1ccc(O)cc1` [Example 5, 5-Fluoro-1-(4-hydroxyphenyl)-2-methyl-1H-indole-3-carbaldehyde oxime] showed a melting point of 162 to 163 °C. The molecule also yielded an IC50 at human ERβ of 6.2 nM. Moreover, the IC50 on human ERα came to 91 nM.

`Cc1c(/C=N/O)c2cc(Cl)ccc2n1-c1ccc(O)cc1` [Example 6, 5-Chloro-1-(4-hydroxyphenyl)-2-methyl-1H-indole-3-carbaldehyde oxime]: the melting point is 212 to 213 °C. The IC50 at human ERβ was 29 nM. This molecule also had an IC50 on human ERα of 145 nM.

`Cc1c(/C=N/O)c2ccccc2n1-c1ccc(O)cc1` [Example 4, 1-(4-Hydroxyphenyl)-2-methyl-1H-indole-3-carbaldehyde oxime]: the melting point is 171 to 173 °C.

As to `O/N=C/c1cn(-c2ccc(O)cc2)c2ccccc12` [Example 9, 1-(4-Hydroxyphenyl)-1H-indole-3-carbaldehyde oxime], the melting point was in the range of 95 to 97 °C.

`Cc1c(/C=N/O)c2cc(Br)ccc2n1-c1ccc(O)cc1` [Example 7, 5-Bromo-1-(4-hydroxyphenyl)-2-methyl-1H-indole-3-carbaldehyde oxime] returned a melting point of 209 to 211 °C. Further, at human ERβ, the IC50 worked out at 93.5 nM. Also, on human ERα, the IC50 is 235 nM.
